# Test results as given in PMC8208785, “Therapeutic efficacy of novel memantine nitrate MN‐08 in animal models of Alzheimer’s disease” (Aging Cell, 2021).
# Read-outs that look alike come from different tables or passages of the source.
# Legend:
# [1] = system: cerebellar granule neurons (CGNs); assay: MTT cell viability, glutamate-induced excitotoxicity in CGNs; format: cell-based, rat; details: MN‐08 1–50 µM for 2 h, then 100 μM glutamate 24 h
# Procedure: Excessive glutamate‐induced excitotoxicity might cause dysfunctions of cellular pathways, subsequently resulting in synaptic dysfunctions and neuronal loss. To evaluate the neuroprotective effects of MN‐08 against excitotoxicity, cerebellar granule neurons (CGNs) were treated with MN‐08 at the concentrations from 1 to 50 µM or memantine from 1 to 10 μM for 2 h, and then exposed to 100 μM glutamate for 24 h. […] Similarly, in APP/PS1 mice, MN‐08 prevented neuronal loss in the hippocampus by upregulating the expression ratio of Bcl‐2/Bax and downregulating the expression ratio of cleaved Caspase‐3 to Caspase‐3 (Figure S6).
# CGNs were prepared from the 8-day-old Sprague–Dawley rats as described in our previous publication (Li et al., 2005). Briefly, animals were anesthetized and sacrificed, and their cerebella were collected. […]
# Neurotoxicity was assessed using the tetrazolium salt 3-(4,5-dimethylthiazol-2-yl)-2,5- diphenyltetrazolium bromide dye (MTT) assay as previous publication (Luo et al., 2010). […] Cell viability was evaluated by observing colorimetric changes using a CLARIOstar plus Microplate Reader (BMG Labtech, Ortenberg, Germany) at a test wavelength of 570 nm with 655 nm as a reference wavelength. Data were expressed as a percentage of control cultures.
# [2] = pharmacokinetic analysis of MN-08 in rats; format: in vivo; details: both sexes, rat, plasma, po; for Cmax: read-out: Cmax, peak concentration; for half-life: read-out: T1/2, mean terminal half-life (converted); for Tmax: read-out: Tmax, mean time to peak
# Procedure: Healthy adult rats were cannulated under anesthesia one day before dosing, then randomly categorized into 3 groups (3 males and 3 females for each group): (1) MN-08 (3 mg/kg) group; (2) MN-08 (12 mg/kg) group; (3) MN-08 (24 mg/kg) group. Following single administration of MN-08 by gastric gavage, plasma samples (approximately 150 μL) were collected at different time points (Pre-dose and 0.25, 0.5, 1, 2, 4, 8, 12, 24 h after dose). The blood samples were placed in heparinized tubes and centrifuged at 3000 rpm for 10 min. The supernatant plasma was stored at -80°C until analysis. The concentration of MN-08 in blood samples was analyzed by the LC-MS/MS method as previously described (Tian et al., 2016).
# [3] = system: NMDA receptors (NMDA‐activated current in rat hippocampal neurons); assay: whole-cell patch-clamp recording of NMDA-activated current in primary hippocampal neurons; format: cell-based
# 3×Tg‐AD mice = assay: behavioral tests (SDA, NOR, MWM), treatment study in 3×Tg-AD mice; format: in vivo; details: 3, 6, and 12 mg/kg, vs vehicle
# Procedure: Triple transgenic 3×Tg‐AD mice were acquired from Jackson Laboratory and fostered in the Shenzhen Center for Disease Control and Prevention (Shenzhen, China). Eight‐month‐old 3×Tg‐AD mice were categorized into six groups: (1) 3×Tg‐AD +Vehicle group; (2) 3×Tg‐AD +MN‐08 (3 mg/kg) group; (3) 3×Tg‐AD +MN‐08 (6 mg/kg) group; (4) 3×Tg‐AD +MN‐08 (12 mg/kg) group; (5) 3×Tg‐AD +Memantine (Mem, 5 mg/kg) group; (6) 3×Tg‐AD +Donepezil (Done, 1.3 mg/kg, once daily) group; (7) Eight‐month‐old B6129SF2/J mice as a control group. MN‐08 and memantine were given twice daily (Done, once daily) by gastric gavage for 4 months from 8 months of age.
# The step-down avoidance (SDA) test was performed as previously described (Zhou et al., 2019). During the training phase, mice were singly placed on a metal floor with electrical stimulation (35 V) for 5 min. After 24 hours, the mouse was positioned on a wooden platform, while the metal floor at the bottom delivered an electrical shock (35 V) for another 5 min. The time for the animal to step down from the wooden platform were recorded as the step-down latency to evaluate retention memory.
# Hippocampus-dependent spatial memory was determined by the Morris water maze (MWM) test according to the protocol described in a previous study (Jiao et al., 2015). The MWM test includes a platform training phase and a probe trial phase. An escape platform was placed in a fixed spatial location. During the training phase, each animal was placed at one of four different starting positions and tested four times a day with an interval of approximately 30 min. The animal in the water was immediately removed when it swam to the escape platform within 60 s. […] After the training phase, the probe trial was performed on the sixth day when the platform was removed. The animal was placed in the same starting position in the pool and allowed to move freely for 2 min. The animal swimming track was recorded and analyzed with a digital camera.
# The novel object recognition test was performed to assess non-spatial working memory according to previously published protocols (Choi et al., 2011). Firstly, each animal was sequentially placed into a square box (50 × 50 × 50 cm, length × width × height) without any objects for 10 min per day for 2 continuous days to habituate to the environment. Then, two identical objects were placed parallel near one wall of the square box. Animals were placed singly in the box and allowed to explore the objects for 10 min. […] The time each animal took to examine the familiar object and novel object was recorded by digital camera. The discrimination index was calculated according to the following expression: (novel object (s) - familiar object (s))/ (novel object (s) + familiar object (s)). […]
# intact narcotized rats = system: intact narcotized rats; parameters: method as in Mirzoyan et al., 2014; details: intact narcotized rats and animals with global transient ischemia; ref Mirzoyan et al., 2014; cited from earlier work
# [4] = single intragastric dose 3 mg/kg
# [5] = single intragastric dose 12 mg/kg
# [6] = single intragastric dose 24 mg/kg
Structure (SMILES),protection against glutamate‐induced excitotoxicity (MTT) [1],"Cmax [2, 4] [ng/mL]","half-life [2, 4] [h]","Tmax [2, 4] [h]","Cmax [2, 5] [ng/mL]","half-life [2, 5] [h]","Tmax [2, 5] [h]","Cmax [2, 6] [ng/mL]","half-life [2, 6] [h]","Tmax [2, 6] [h]",IC50 on NMDA‐mediated current compared with memantine [3],"NMDA‐activated current ([3]; MN‐08 1–30 µM, whole‐cell patch‐clamp)","NMDA‐activated current after washout of the compound (off‐rate) ([3]; NMDA 30 µM, −50 mV)","IC50 ([3]; holding potential −50 mV, NMDA 30 μM, rat hippocampal neurons, read-out: IC50 on the inhibition of NMDA‐mediated current) [µM]",step‐down latency (3×Tg‐AD mice; 4 months from 8 months of age),discrimination index (NOR) (3×Tg‐AD mice; 4 months),escape latency time (MWM) (3×Tg‐AD mice; 4 months),number of crossings (MWM) (3×Tg‐AD mice; 4 months),local cerebral blood flow (CBF) in the brain cortices (intact narcotized rats)
CCC12CC3CC(N)(C1)CC(CO[N+](=O)[O-])(C3)C2 (stereo not shown) [MN‐08],concentration‐dependently protect,97.5,5.26,1.08,399,6.81,1.83,674,6.82,4,slightly high than memantine,inhibited,recovered rapidly,7.32 ± 0.23,significant increase,significant increase,significant reduction,significant increase,
"CC12CC3CC(C)(C1)CC(N)(C3)C2 [memantine, 1‐amino‐3,5‐dimethyladamantane]",,,,,,,,,,,,,,,,,,,reduce
